Earlier results in patent publication US20160199396A1 (TEVA Pharmaceutical Industries Ltd., priority 2013, published 2016).

Details: background statement

BCS (biopharmaceutical classification system) class: class IV
Compound: CC(C)c1nc(CN(C)C(=O)N[C@H](C(=O)N[C@@H](Cc2ccccc2)C[C@H](O)[C@H](Cc2ccccc2)NC(=O)OCc2cncs2)C(C)C)cs1 [Ritonavir, 1,3-thiazol-5-ylmethyl N-[(2S,3S,5S)-3-hydroxy-5-[(2S)-3-methyl-2-{[methyl({[2-(propan-2-yl)-1,3-thiazol-4-yl]methyl})carbamoyl]amino}butanamido]-1,6-diphenylhexan-2-yl]carbamate]
